Data set [1] has as its system Mus musculus. Put plainly: Anti-MASH activity in HFD-fed CCl4-treated male C57BL/6 mouse assessed as reduction in hepatic triglyceride level at 150 mg/kg, po qd treated for 4 weeks by ELISA. In kind it is functional, organism-based. On the technique in general: ELISA stands for enzyme-linked immunosorbent assay.
In data set [2] the test system is Mus musculus. Description: Anti-MASH activity in HFD-fed CCl4-treated male C57BL/6 mouse assessed as reduction in fat accumulation in liver at 150 mg/kg, po qd treated for 4 weeks by Oil red O staining based analysis. Type of data set: functional, organism-based.
Data set [3] in a line: Antioxidant activity assessed as clearing rate incubated for 5 mins in presence of pyrogallol by superoxide anion scavenging assay. Type of data set: functional.
The subject of the next data set is Hepatocyte. Put plainly: Anti-MASH activity in CCl4-stimulated mouse primary hepatocytes assessed as reduction in ROS level at 2.5 to 10 uM by DCFH-DA staining assay. To be noted: dose 2.5-10 µM. Type of data set: functional, cell-based.
Data set [4] is described as follows: Terminal half life in overnight-fasted male Sprague-Dawley rat at 150 mg/kg, po measured up to 12 hrs by HPLC analysis. In kind it is ADME, organism-based. To be noted: in vivo, read-out: beta t1/2 (converted).
Data set [5] relates to Rattus norvegicus. Description: Hepatoprotective activity in male Sprague-Dawley rat model of CCl4-induced ALI assessed as reduction in acute fat deposition at 100 mg/kg, IG qd pretreated with compound for 7 days followed by CCl4 administration after 2 hrs post-compound treatment measured after 16 hrs post-CCl4 injection by oil red O staining based analysis. In kind it is functional, organism-based. The note with it: time 186.0 hrs.

Another data set has as its system L02. Description: Anti-MASH activity in CCl4-stimulated human LO2 cells assessed as increase in cell viability up to 10 uM incubated for 24 hrs by MTT assay. In kind it is functional, cell-based. In general terms: Formazan colour is commonly taken as a measure of viable cells.
Data set [6] is described as follows: Oral bioavailability in overnight-fasted male Sprague-Dawley rat assessed as fold increase at 150 mg/kg measured up to 12 hrs by HPLC analysis relative to silybin. Type of data set: ADME, organism-based. To be noted: in vivo.
Data set [7] concerns Mus musculus. Description: Anti-MASH activity in HFD-fed CCl4-treated male C57BL/6 mouse assessed as reduction in serum cholesterol level at 150 mg/kg, po qd treated for 4 weeks. Type of data set: functional, organism-based.
The subject of data set [8] is Rattus norvegicus. Description: Hepatoprotective activity in male Sprague-Dawley rat model of CCl4-induced ALI assessed as restoration of serum AST level at 100 mg/kg, IG qd pretreated with compound for 7 days followed by CCl4 administration after 2 hrs post-compound treatment measured after 16 hrs post-CCl4 injection. In kind it is functional, organism-based. To be noted: time 186.0 hrs.

Active and inactive are the calls of the source. The calls are words filed in the database; no cut-off is given here.

Regarding `COc1cc([C@@H]2Oc3cc([C@H]4Oc5cc(O)cc(O)c5C(=O)[C@@H]4O)ccc3OC2CS)ccc1O` (stereo not given in full), the Activity result with Mus musculus [1] was “Active; Activity Was More Significant Than Silybin”; in data set [3], 82.9%. Also, the outcome in the data set on Mus musculus [2], in the data set with Hepatocyte, with Rattus norvegicus [5], with L02, in the data set with Mus musculus [7] and with Rattus norvegicus [8] was Active. The half-life in data set [4] was 93 min. The “fold change (FC)” value in data set [6] is reported as greater than 20.

The values above are taken from ChEMBL document CHEMBL6182935, “Discovery of a Novel Silybin Derivative for the Treatment of Metabolic Dysfunction-Associated Steatohepatitis” (J Med Chem, 2025).
